The source of these data is PubChem BioAssay (NCI).

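Test compounds were applied to cells in 96-well plates for 48 hours at 5 doses. TGI is the concentration that stops growth completely.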

What all share (experiment): NCI-60 cell line screen, 48 h
Assay [1] relates to ACHN renal.
The subject of assay [2] is OVCAR-8 ovarian.
For assay [3], the system named is T-47D breast.
The subject of assay [4] is BT-549 breast.
Assay [5] has as its system DU-145 prostate.
Assay [6] relates to HOP-92 NSCLC.
Assay [7] concerns CAKI-1 renal.
For assay [8], the system named is MDA-MB-231 breast.
Assay [9] deals with NCI-H460 lung.
Assay [10] has as its system NCI-H23 lung.

Turning to `CN1C2CCC1C(CO)C(=O)C2` (stereo not given), the TGI was over 100 µM in [1]; over 100 µM in [2]; 48.1 µM in assay [3]; over 100 µM in assay [4]; over 100 µM in assay [5]; over 100 µM in assay [6]. The TGI in [7], in assay [8], in assay [9] and in assay [10] was over 100 µM in each case.
On to `OC(CCN1CCN(CCOC(c2ccc(F)cc2)c2ccc(F)cc2)CC1)c1ccc(Br)cc1` (stereo not given), for which the TGI worked out at 17 µM in assay [1]; 4.1 µM in [2]; 13.7 µM in assay [3]; 12.5 µM in assay [4]; 17.4 µM in assay [5]; 13.7 µM in assay [6]. Also, the TGI in assay [7] was 5.71 µM; in [8], 19.9 µM; in assay [9], 7.37 µM; in assay [10], 18.9 µM.
For the compound `O=C1CCC(CCc2nc3ccccc3[nH]2)(c2ccccc2)C(=O)N1` (stereo not given), the TGI in assay [1], in [2], in assay [3], in assay [4], in assay [5] and in assay [6] was over 100 µM in each case. Further, the TGI in assay [7], in [8], in assay [9] and in assay [10] was over 100 µM in each case.
As for `CC1OC2OC3C(OCC(O)C3O)OC(=O)[C@]34CCC(C)(C)CC3C3=CCC5[C@@]6(C)C[C@H](O)[C@H](OC7OC(CO)C(O)C(O)C7OC7OC(COC(=O)CC(C)(O)CC(=O)OC1C(OC1OC(CO)C(O)C(O)C1O)C2O)C(O)C(O)C7O)[C@@](C)(CO)C6CC[C@@]5(C)[C@]3(C)CC4` (stereo not given in full), the TGI came to 8.36 µM in [1]; 13.1 µM in [2]; 12.6 µM in [3]; 19.3 µM in assay [4]; 8.51 µM in assay [5]; 4.31 µM in assay [6]. The TGI in assay [7] amounted to 17.7 µM; in assay [8] it was 16.4 µM; in assay [9], 19.8 µM; in assay [10], 3.23 µM.
On to `Cc1nn(C(=O)c2ccccc2O)c2c1C(c1ccc([N+](=O)[O-])cc1)SC(N)=N2` (stereo not given), for which the TGI in assay [1] is over 8.37 µM; in [2] it was over 10 µM; in assay [3], over 10 µM; in [4], over 10 µM; in [5], over 10 µM; in assay [6] it was over 10 µM. Also, the TGI in assay [7], in [8], in assay [9] and in assay [10] was over 10 µM each time.
Turning to `C/C(=C\CO)CC[C@@H]1[C@@]2(C)CCCC(C)(C)[C@@H]2CC[C@@]1(C)O`, the TGI is over 100 µM in [1]; 31.8 µM in assay [2]; 51.3 µM in [3]; 32.6 µM in assay [4]; 34.3 µM in assay [5]; 32.4 µM in assay [6]. Besides, the TGI in assay [7] came to 72.1 µM; in [8] it was 31 µM; in assay [9] it was 31.3 µM; in [10], 40 µM.
As to `CCCCCc1cc(CCCC)sc1-c1ccco1`, the TGI in [1], in assay [2], in assay [3], in assay [4], in assay [5] and in assay [6] was over 100 µM throughout. Besides, the TGI in assay [7], in assay [8], in assay [9] and in assay [10] was over 100 µM each time.
On to `Brc1ccc2[nH]cc(-c3csc(-c4c[nH]c5ccc(Br)cc45)n3)c2c1`, for which the TGI in [1] came to 4.8 µM; in assay [2], 7.22 µM; in assay [3], 12.2 µM; in assay [4] it was 18 µM; in assay [5] it was 6.89 µM; in [6] it was 4.64 µM. For the same compound, the TGI in assay [7] was 5.31 µM; in assay [8], 3.38 µM; in [9] it was 3.43 µM; in assay [10] it was 6.34 µM.
For `Brc1ccc(/C(N=N/C(=N\Sc2ccccc2)c2ccc(Br)cc2)=N/Sc2ccccc2)cc1`, the TGI in [1], in assay [2], in assay [3], in [4], in assay [5] and in assay [6] was over 100 µM throughout. Also, the TGI in assay [7], in [8], in assay [9] and in [10] was over 100 µM in each case.
`O=C(O)C12C3C4(C(=O)O)C1C1(C(=O)O)C2C3(C(=O)O)C41` (stereo not given): the TGI in assay [1], in assay [2], in assay [3], in assay [4], in [5] and in assay [6] was over 100 µM in each case. In addition, the TGI in assay [7], in [8], in [9] and in assay [10] was over 100 µM throughout.
As to `C[C@@](Br)(C(=O)O)[C@H](Br)C(=O)O`, the TGI in [1], in assay [2], in assay [3], in assay [4], in assay [5] and in assay [6] was over 100 µM in each case. The TGI in assay [7], in assay [8], in assay [9] and in assay [10] was over 100 µM each time.
`COC(=O)[C@@H]1[C@H]2CC[C@]3(C)[C@@H](OC(C)=O)CC[C@H]3[C@@H]2CC[C@H]1C1(C)SCCS1`: the TGI was over 100 µM in [1]; 70.6 µM in [2]; 56.8 µM in assay [3]; 46.2 µM in assay [4]; over 100 µM in assay [5]; 47.9 µM in assay [6]. Moreover, the TGI in [7] is over 100 µM; in assay [8] it was 62.1 µM; in assay [9], 97.8 µM; in assay [10], 86.7 µM.
For `CC(C)(C)C#CI1OC(=O)c2ccccc21`, the TGI was 8.42 µM in assay [1]; 23.3 µM in assay [2]; 14.7 µM in assay [3]; 11.7 µM in [4]; 17.8 µM in assay [5]; 5.78 µM in assay [6]. In addition, the TGI in assay [7] is 7.21 µM; in [8] it was 34 µM; in assay [9], 11.9 µM; in [10] it was 15.3 µM.
